Reference: patent US20250281424A1 (New York Blood Center, Inc, priority 2020, published 2025)
Entries after “also recorded” stand apart in the source; their conditions may differ.

How the values were obtained:
human PF4 = target: T1, human PF4 (Homo sapiens, UniProt P02776); assay: Inhibition of PF4 tetramer formation (BS3 cross-linking, SDS-PAGE); assay type: biochemical; conditions: for IC50: read-out: IC50 of PF4 tetramer formation inhibition; for inhibition at 5 µM: 5 μM inhibitor; for inhibition at 10 µM: 10 μM inhibitor (column A)
T1 construct: PF4 is a 70 amino acid, lysine-rich 7.8 kDa platelet-specific protein; made in house; host or cells: Escherichia coli BL21DE3 pLysS (pT7-7) and/or Drosophila S2 cells
T1 sequence (P02776 32-101): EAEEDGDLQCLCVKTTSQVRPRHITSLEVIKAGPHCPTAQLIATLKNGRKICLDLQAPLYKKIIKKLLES
Outline: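 Monomer, dimer, trimer and tetramer fractions were quantified by densitometry after reducing 12% SDS-PAGE of BS3-cross-linked (0.2 mM, 30 min, room temperature) PF4. Before cross-linking, 10 μg/ml E. coli-expressed human WT PF4 in PBS was exposed to compound for 15 min at 37° C or 60 min at room temperature; controls lacked compound.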

[1] = target: T2, ultra large complexes (ULC) between PF4 tetramers and heparin (Homo sapiens, UniProt P02776); assay: Inhibition of formation of ultra large complexes (ULC) of PF4 tetramers and heparin; assay type: biochemical; conditions: IC50 values are +/−20%
T2 construct: platelet factor 4 which is a 70 amino acid, lysine-rich, 7.8 kDa platelet-specific protein
T2 sequence (P02776 32-101): T1 sequence (P02776 32-101)
Protocol: Since ULCs are formed as part of a dynamic equilibrium between heparin and PF4, dynamic light scattering (DLS) was performed to measure the ability of the exemplified compounds to disrupt preformed ULCs. Samples were analyzed and included PF4 incubated in the absence or presence of unfractionated heparin (UFH) for 20 min at room temperature at PF4 to heparin ratios (PHR) of 1:0 (no heparin), 2:1, and 0.64:1. The samples were then analyzed using photon correlation spectroscopy on a DynaPro® DLS instrument and Dynamics® software (V6.7.6; […]) to obtain correlation function. The results of the DLS analysis indicate the percentage of ULCs and small PF4 particles. Data for the small particles (a population of particles with a mean hydrodynamic diameter of about 1 nm) and data for the large particles (a population of particles with a mean hydrodynamic diameter of about 300 nm) is assessed. Data are expressed as the percent of total intensity from each measurement, the mean of 10 measurements, and representative of two such experiments.
ELISA measurement and gel filtration measurement of ULC inhibition were performed as described in International Patent Publication No. WO2013/142328, which is incorporated herein by reference. Similarly, assays in which heparin concentrations are varied to determine the effect on ULC inhibition were performed as described in that publication.
Certain compounds were evaluated for their ability to inhibit formation of ultra large complexes (ULC) between PF4 tetramers and heparin.

[2] = Cytotoxicity HepG2 (MTS reduction); assay type: cell-based; conditions: human, HepG2 cells; read-out: Cytotox HepG2 EC50
[3] = Cytotoxicity NIH3T3 (MTS reduction); assay type: cell-based; conditions: mouse, NIH3T3 cells, 1 hour exposure in the absence of serum, N = 3, read-out: Cytotox NIH3T3 EC50
[4] = Human microsome stability; assay type: in vitro ADME; conditions: Human microsomes, compound conc = 0.5 μM, n = 1; read-out: Human microsome stability Half life t1/2
Text: (§1) Certain exemplified compounds were examined for ADMET (absorption, distribution, metabolism, excretion and toxicity) profiling using conventional assays with the results shown in the Tables 3A-3C below.

[5] = Mouse microsome stability; assay type: in vitro ADME; conditions: Mouse microsomes, compound conc = 0.5 μM, n = 1; read-out: Mouse microsome stability Half life t1/2
Text: as §1

human platelets = assay: PF4-KKO induced platelet activation, P-selectin, human platelets; assay type: cell-based; conditions: for PF4-KKO induced platelet activation using P-selectin as a marker: human platelet activation assays, 20 μM and 40 μM (FIGS. 8 and 9)
[6] = test system: FcγRIIA transgenic murine platelets; assay: PF4-KKO induced platelet activation, P-selectin, FcγRIIA transgenic murine platelets; assay type: cell-based, mouse; conditions: for normalized P-selectin levels: FIG. 22; for preventing P-selectin expression: FcγRIIA transgenic murine platelets, 50 μM compound, 37.5 μg/ml PF4, 50 μg/ml KKO (FIGS. 14-21)
Protocol: Whole blood was diluted with 1× Tyrode buffer (5 mM N-2-hydroxyethylpiperazine-N′-2-ethanesulfonic acid, 0.1% BSA, 134 mM NaCl, 0.3 mM NaH2PO4, 3 mM KCl, 2 mM MgCl2, 12 mM NaHCO3, 5 mM glucose) with 0.02 U/ml apyrase and 1 μM PGE1 and centrifuged at 100 g for 10 min. Platelet rich plasma (PRP) was carefully removed and centrifuged at 1000 g for 5 min. Platelet pellet was resuspended in Tyrode buffer with 0.02 U/ml apyrase at 2×10^8/ml concentration at 37° C. PF4 antagonists are diluted in Tyrode buffer, and are incubated with 10 μg/ml human PF4 purified protein at room temperature for 30 min. The PF4-drug complex is then incubated with 1×10^8/ml platelets with 1 mM CaCl2, 0.1% BSA at 37° C. for 10 min. 40 μg/ml KKO and 10 μg/ml anti-CD62P (P-selectin) antibodies are added into the reaction. One milliliter ice-cold PBS is added to each reaction after 5 min of incubation. Labelled platelets are then analyzed by a BD Accuri C6 flow cytometer. The results are represented by both the mean fluorescence intensity and by the percentage of positive platelets.
37.5 μg/ml PF4 with/without 50 μM of the exemplified compound incubated with 3×10^7/ml platelets; 50 μg/ml KKO.

[7] = read-out: % inhibition of PF4 tetramer formation at single concentration of inhibitor

SMILES | IC50 (human PF4) | IC50 [1] | EC50 [2] | EC50 at 1 h [3] | inhibition at 5 µM (human PF4; [7]) | inhibition at 10 µM (human PF4; [7]) | half-life at 0.5 μM [4] | half-life at 0.5 μM [5] | PF4-KKO induced platelet activation using P-selectin as a marker (human platelets) | normalized P-selectin levels [6] | preventing P-selectin expression [6] | inhibition at 30 µM (human PF4; 30 μM inhibitor, read-out: % inhibition of PF4 tetramer formation at single concentration of inhibitor) | preventing PF4-KKO induced platelet activation using P-selectin as a marker (human platelets; human platelets (FIG. 12)) | inhibition at 100 µM (human PF4; 100 μM inhibitor, read-out: % inhibition of PF4 tetramer formation at single concentration of inhibitor)
CC(=O)C1(C(=O)OC(C)(C)C)C(=O)c2ccc(Oc3ccc4c(c3)C(=O)C(C(C)=O)(C(=O)OC(C)(C)C)C4=O)cc2C1=O (centres unmarked) [Example 5, 5-(2-acetyl-2-carbo-t-butoxy-2,3-dihydro-1,3dioxo-1h-inden-6-yloxy)-2-acetyl-2-carbo-t-butoxy-2,3-dihydro-1,3-dioxo-1h-indene] | 10.4 µM | 10 µM | > 3350 µg/mL | > 3350 µg/mL | – | – | – | – | – | – | – | – | – | –
O=C(O)CCNC(=O)C1C(=O)c2ccc(C(=O)c3ccc4c(c3)C(=O)C(C(=O)NCCC(=O)O)C4=O)cc2C1=O (centres unmarked) [Example 32, 5,5′-carbonylbis(3-[(1,3-dioxo-indane-2-carbonyl)-amino]-propionic acid)] | 2.99 µM | – | – | – | 86% | 91% | 54 min | > 180 min | inhibitory | modulate the activity of normalized P-selectin; also recorded: inhibition | efficacy | – | – | –
O=C(NC1CC1)C1C(=O)c2ccc(S(=O)(=O)c3ccc4c(c3)C(=O)C(C(=O)NC3CC3)C4=O)cc2C1=O (centres unmarked) [Example 34, 5,5′-sulphonylbis(1,3-dioxo-indan-2-carboxylic acid (cyclopropyl)-amide)] | 1.06 µM | – | – | – | 60% | 81% | > 180 min | 86.5 min | inhibitory | modulate the activity of normalized P-selectin; also recorded: inhibition | efficacy | – | – | –
CCCNC(=O)C1C(=O)c2ccc(C(=O)c3ccc4c(c3)C(=O)C(C(=O)NCCC)C4=O)cc2C1=O (centres unmarked) [Example 15, 5,5′-carbonylbis(1,3-dioxo-indan-2-carboxylic acid propylamide)] | 3 µM | 11 µM | > 1000 µg/mL | > 1000 µg/mL | – | – | 116 min | 93.8 min | inhibitory | – | – | 93% | efficacy | –
O=C(c1ccc2c(c1)C(=O)CC2=O)c1ccc2c(c1)C(=O)CC2=O [Example 4, 5,5′-carbonylbis(1h-indene-1,3(2h)-dione)] | 4 µM | 3 µM | > 250 µg/mL | > 250 µg/mL | – | – | 4.7 min | 1.7 min | – | – | – | – | – | 96%
O=C(NCCc1ccccc1)C1C(=O)c2ccc(S(=O)(=O)c3ccc4c(c3)C(=O)C(C(=O)NCCc3ccccc3)C4=O)cc2C1=O (centres unmarked) [Example 33, 5,5′-sulphonylbis(1,3-dioxo-indan-2-carboxylic acid (2-phenylethyl)-amide)] | 1.6 µM | – | – | – | 67% | 76% | – | – | inhibitory | inhibition | efficacy | – | – | –
O=C(c1ccc2c(c1)C(=O)C(C(=O)NCCc1ccc(F)cc1)C2=O)c1ccc2c(c1)C(=O)C(C(=O)NCCc1ccc(F)cc1)C2=O (centres unmarked) [Example 22, 5,5′-carbonylbis(1,3-dioxo-indan-2-carboxylic acid (2-(4-fluorophenyl)ethyl)-amide)] | 1.87 µM | – | – | – | 66% | 76% | 59.7 min | 47.9 min | inhibitory | modulate the activity of normalized P-selectin; also recorded: inhibition | efficacy | – | – | –
COc1ccccc1NC(=O)C1C(=O)c2ccc(C(=O)c3ccc4c(c3)C(=O)C(C(=O)Nc3ccccc3OC)C4=O)cc2C1=O (centres unmarked) [Example 28, 5,5′-carbonylbis(1,3-dioxo-indan-2-carboxylic acid (2-methoxyphenyl)-amide)] | 0.64 µM | – | – | – | 82% | 65% | > 180 min | 52.2 min | inhibitory | modulate the activity of normalized P-selectin; also recorded: inhibition | efficacy | – | – | –
COc1ccc(NC(=O)C2C(=O)c3ccc(C(=O)c4ccc5c(c4)C(=O)C(C(=O)Nc4ccc(OC)cc4)C5=O)cc3C2=O)cc1 (centres unmarked) [Example 31, 5,5′-carbonylbis(1,3-dioxo-indan-2-carboxylic acid (4-methoxyphenyl)-amide)] | 1.74 µM | – | – | – | – | – | – | – | inhibitory | modulate the activity of normalized P-selectin; also recorded: inhibition | efficacy | – | – | –
